{"source": "patent US5518735A", "about": "“Meta-substituted phenylalanine derivatives” (priority 1990, dated 1996)", "key": {"[1]": {"biological_target": "thrombin (Bos taurus, UniProt P00735)", "experiment": "Inhibition of thrombin (dissociation constant Ki)", "format": "biochemical"}, "[2]": {"biological_target": "factor Xa (Bos taurus, UniProt P00743)", "sequence (P00743 234-492 limits assumed)": "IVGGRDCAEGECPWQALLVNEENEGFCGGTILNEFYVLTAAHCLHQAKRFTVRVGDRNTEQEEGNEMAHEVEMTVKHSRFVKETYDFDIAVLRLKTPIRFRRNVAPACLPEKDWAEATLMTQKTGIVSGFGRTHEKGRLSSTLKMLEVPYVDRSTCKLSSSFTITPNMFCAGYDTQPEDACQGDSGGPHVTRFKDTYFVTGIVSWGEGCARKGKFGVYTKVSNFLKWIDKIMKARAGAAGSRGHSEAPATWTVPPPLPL", "sequence (P00743 41-180 partner limits assumed)": "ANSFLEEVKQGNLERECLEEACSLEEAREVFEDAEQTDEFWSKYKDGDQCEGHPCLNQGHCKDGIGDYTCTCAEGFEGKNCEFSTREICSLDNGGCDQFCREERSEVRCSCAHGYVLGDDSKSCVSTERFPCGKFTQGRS", "experiment": "Inhibition of factor Xa (dissociation constant Ki)", "format": "biochemical"}, "[3]": {"biological_target": "T1, plasmin (Homo sapiens, UniProt P00747)", "T1 construct": "trypsin and the related enzymes thrombin, plasmin, factor Xa, tPA", "T1 sequence (P00747 581-810 limits assumed)": "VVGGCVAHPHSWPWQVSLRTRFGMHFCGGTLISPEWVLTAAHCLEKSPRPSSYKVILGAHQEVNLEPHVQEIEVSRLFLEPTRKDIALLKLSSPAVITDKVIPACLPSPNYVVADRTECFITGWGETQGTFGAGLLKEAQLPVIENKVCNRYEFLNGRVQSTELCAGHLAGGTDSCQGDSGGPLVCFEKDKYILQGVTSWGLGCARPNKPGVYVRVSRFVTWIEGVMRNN", "T1 sequence (P00747 97-580 partner limits assumed)": "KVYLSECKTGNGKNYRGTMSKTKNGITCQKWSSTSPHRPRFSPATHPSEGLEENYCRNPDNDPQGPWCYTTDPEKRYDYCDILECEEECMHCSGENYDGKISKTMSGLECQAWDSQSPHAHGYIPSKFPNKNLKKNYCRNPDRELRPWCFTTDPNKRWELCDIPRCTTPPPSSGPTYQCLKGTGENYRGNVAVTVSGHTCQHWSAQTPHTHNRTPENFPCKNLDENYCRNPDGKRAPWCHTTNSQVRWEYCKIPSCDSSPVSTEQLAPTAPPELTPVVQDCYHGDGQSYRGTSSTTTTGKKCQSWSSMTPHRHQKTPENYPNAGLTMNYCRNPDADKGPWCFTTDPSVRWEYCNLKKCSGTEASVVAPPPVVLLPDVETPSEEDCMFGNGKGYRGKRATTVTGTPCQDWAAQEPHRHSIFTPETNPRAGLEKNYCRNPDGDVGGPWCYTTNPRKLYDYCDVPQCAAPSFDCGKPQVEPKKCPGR", "experiment": "Inhibition of plasmin (Ki)", "format": "biochemical", "conditions": "Table 26"}, "[4]": {"biological_target": "T2, factor XIIa (Homo sapiens, UniProt P00748)", "T2 construct": "glandular kallikrein, factor XIIa and plasma kallikrein", "T2 sequence (P00748 373-615 limits assumed)": "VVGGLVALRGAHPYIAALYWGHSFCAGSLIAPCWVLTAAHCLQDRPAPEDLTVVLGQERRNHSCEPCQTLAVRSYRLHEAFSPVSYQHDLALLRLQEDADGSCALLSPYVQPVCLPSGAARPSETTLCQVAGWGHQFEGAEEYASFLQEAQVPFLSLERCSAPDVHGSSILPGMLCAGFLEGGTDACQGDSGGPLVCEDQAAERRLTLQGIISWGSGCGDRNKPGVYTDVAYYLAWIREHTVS", "experiment": "Inhibition of factor XIIa (Ki)", "format": "biochemical", "conditions": "Table 26"}, "[5]": {"biological_target": "tPA (Homo sapiens, UniProt P00750)", "sequence (P00750 36-562)": "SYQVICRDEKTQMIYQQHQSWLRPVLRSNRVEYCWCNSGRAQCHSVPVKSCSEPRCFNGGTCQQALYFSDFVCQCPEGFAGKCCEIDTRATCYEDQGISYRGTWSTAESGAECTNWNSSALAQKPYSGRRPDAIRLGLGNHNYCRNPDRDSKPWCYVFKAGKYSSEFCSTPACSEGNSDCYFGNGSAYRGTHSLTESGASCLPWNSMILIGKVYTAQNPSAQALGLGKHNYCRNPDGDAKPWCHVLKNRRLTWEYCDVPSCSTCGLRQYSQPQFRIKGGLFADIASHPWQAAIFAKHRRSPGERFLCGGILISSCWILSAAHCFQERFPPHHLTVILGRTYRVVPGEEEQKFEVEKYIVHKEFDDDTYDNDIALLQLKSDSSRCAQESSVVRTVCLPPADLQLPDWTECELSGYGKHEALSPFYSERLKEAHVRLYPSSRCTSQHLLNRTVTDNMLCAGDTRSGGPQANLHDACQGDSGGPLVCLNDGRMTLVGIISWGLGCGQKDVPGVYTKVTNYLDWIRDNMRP", "experiment": "Inhibition of tPA (Ki)", "format": "biochemical", "conditions": "Table 26"}, "[6]": {"biological_target": "glandular kallikrein (Sus scrofa, UniProt P00752)", "sequence (P00752 8-246)": "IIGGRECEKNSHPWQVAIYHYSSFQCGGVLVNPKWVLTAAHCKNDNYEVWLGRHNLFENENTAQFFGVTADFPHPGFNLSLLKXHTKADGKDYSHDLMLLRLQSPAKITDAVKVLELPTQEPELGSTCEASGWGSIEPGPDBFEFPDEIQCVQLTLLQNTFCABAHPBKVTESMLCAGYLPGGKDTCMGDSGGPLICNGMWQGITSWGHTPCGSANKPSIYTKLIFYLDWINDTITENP", "experiment": "Inhibition of glandular kallikrein (Ki)", "format": "biochemical", "conditions": "Table 26; read-out: Ki, Gland. Kallikrein"}, "[7]": {"biological_target": "T3, plasma kallikrein (Homo sapiens, UniProt P03952)", "T3 construct": "glandular kallikrein, factor XIIa and plasma kallikrein", "T3 sequence (P03952 391-638 limits assumed, species assumed)": "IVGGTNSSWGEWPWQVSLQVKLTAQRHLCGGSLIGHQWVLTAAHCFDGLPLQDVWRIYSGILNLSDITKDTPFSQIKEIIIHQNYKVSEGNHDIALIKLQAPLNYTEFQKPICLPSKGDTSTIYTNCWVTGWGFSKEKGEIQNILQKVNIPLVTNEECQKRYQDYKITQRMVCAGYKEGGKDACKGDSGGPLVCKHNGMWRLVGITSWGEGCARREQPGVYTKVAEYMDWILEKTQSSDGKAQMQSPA", "T3 sequence (P03952 20-390 partner limits assumed, species assumed)": "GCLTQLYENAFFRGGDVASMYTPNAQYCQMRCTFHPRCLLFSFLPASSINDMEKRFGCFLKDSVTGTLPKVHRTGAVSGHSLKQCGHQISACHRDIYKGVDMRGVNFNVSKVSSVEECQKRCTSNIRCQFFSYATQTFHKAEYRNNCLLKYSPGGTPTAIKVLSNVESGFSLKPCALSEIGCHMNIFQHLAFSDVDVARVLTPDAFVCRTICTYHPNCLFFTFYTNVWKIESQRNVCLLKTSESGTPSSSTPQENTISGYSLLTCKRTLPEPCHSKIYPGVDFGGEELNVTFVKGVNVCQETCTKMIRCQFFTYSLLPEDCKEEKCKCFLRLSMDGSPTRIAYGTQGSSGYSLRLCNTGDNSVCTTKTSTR", "experiment": "Inhibition of plasma kallikrein (Ki)", "format": "biochemical", "conditions": "Table 26"}, "[8]": {"experiment": "in vivo", "conditions": "mouse"}, "[9]": {"experiment": "Plasma concentration in rats after oral administration (HPLC)", "conditions": "rat", "procedure": "(§1) For the pharmacokinetic characterization, the plasma concentration of selected derivatives was determined in rats after intravenous (i.v.), subcutaneous (s.c.) and peroral (p.o.) application according to the following three-step procedure:\n(§2) 1. A physiological NaCl solution of the substance to be tested was submitted to high pressure liquid chromatography (HPLC) in order to determine its characteristic substance-specific retention time with the chosen test conditions.\n(§3) 2. The substance to be tested was diluted in vitro in rat plasma. This solution was also submitted to HPLC to see whether the characteristic peak of the substance once again appeared at the substance-specific retention time.\n(§4) 3. […] Blood samples were taken at time intervals of 15 minutes, from which plasma samples were prepared by centrifugation; those samples were also submitted to HPLC to see whether the characteristic peak of the substance appeared again at the substance-specific retention time."}, "[10]": {"experiment": "Plasma concentration in rats after intravenous administration (HPLC)", "conditions": "rat, plasma, iv, 1 mg/kg", "procedure": "as §1, §2, §3, §4"}, "[11]": {"experiment": "Plasma concentration in rats after subcutaneous administration (HPLC)", "conditions": "rat, plasma, sc, 5 mg/kg", "procedure": "as §1, §2, §3, §4"}, "[12]": {"conditions": "Tables 19-25, read-out: Ki, Factor Xa"}}, "note": "Where a name gives a salt, the structure may show the parent alone. Read-outs that look alike come from different tables or passages of the source."}
{"smiles": "COC(=O)C(Cc1cccc(C(=N)N)c1)NS(=O)(=O)c1ccc2ccccc2c1", "note": "(racemic) [Compound 7]", "values": [{"measurement": "Ki", "setting": "[1]", "value": 0.28, "unit": "µM"}, {"measurement": "Ki", "setting": "[2]; [12]", "value": 2.5, "unit": "µM"}, {"measurement": "Ki", "setting": "[3]", "value": 5.2, "unit": "µM"}, {"measurement": "Ki", "setting": "[4]", "value": 190, "unit": "µM"}, {"measurement": "Ki", "setting": "[5]", "value": 120, "unit": "µM"}, {"measurement": "Ki", "setting": "[6]", "value": 210, "unit": "µM"}, {"measurement": "Ki", "setting": "[7]", "value": 18, "unit": "µM"}]}
{"smiles": "CC1CCCCN1C(=O)C(Cc1cccc(C(=N)N)c1)NS(=O)(=O)c1ccc2ccccc2c1", "note": "(racemic) [Compound 32]", "values": [{"measurement": "Ki", "setting": "[1]", "value": 0.13, "unit": "µM"}, {"measurement": "Ki", "setting": "[2]; [12]", "value": 74, "unit": "µM"}]}
{"smiles": "CN1CCN(C(=O)C(Cc2cccc(C(=N)N)c2)NS(=O)(=O)c2ccc3ccccc3c2)CC1", "note": "(racemic) [Compound 35]", "values": [{"measurement": "Ki", "setting": "[2]", "value": 30, "unit": "µM"}, {"measurement": "Ki", "setting": "[3]", "value": 31, "unit": "µM"}, {"measurement": "Ki", "setting": "[4]", "value": "> 1000", "unit": "µM"}, {"measurement": "Ki", "setting": "[5]", "value": 430, "unit": "µM"}, {"measurement": "Ki", "setting": "[6]", "value": "> 1000", "unit": "µM"}, {"measurement": "Ki", "setting": "[7]", "value": 85, "unit": "µM"}]}
{"smiles": "N=C(N)c1cccc(CC(NS(=O)(=O)c2ccc3ccccc3c2)C(=O)N2CCC(C(=O)O)CC2)c1", "note": "(racemic) [Compound 85]", "values": [{"measurement": "LD50 at 168 h", "setting": "[8]; iv", "value": 43, "unit": "mg/kg"}, {"measurement": "LD50 at 168 h", "setting": "[8]; po", "value": "> 3000", "unit": "mg/kg"}, {"measurement": "Concentration in plasma", "setting": "[9]; oral 100 mg/kg, 240 min", "value": 0, "unit": "ng/mL"}, {"measurement": "concentration at 0.25 h", "setting": "[9]; plasma, po, 100 mg/kg", "value": 870, "unit": "ng/mL"}, {"measurement": "concentration at 0.5 h", "setting": "[9]; plasma, po, 100 mg/kg", "value": 541, "unit": "ng/mL"}, {"measurement": "concentration at 0.75 h", "setting": "[9]; plasma, po, 100 mg/kg", "value": 345, "unit": "ng/mL"}, {"measurement": "concentration at 1 h", "setting": "[9]; plasma, po, 100 mg/kg", "value": 120, "unit": "ng/mL"}, {"measurement": "concentration at 2 h", "setting": "[9]; plasma, po, 100 mg/kg", "value": 103, "unit": "ng/mL"}, {"measurement": "concentration at 3 h", "setting": "[9]; plasma, po, 100 mg/kg", "value": 104, "unit": "ng/mL"}, {"measurement": "concentration at 2 min", "setting": "[10]", "value": 2350, "unit": "ng/mL"}, {"measurement": "concentration at 5 min", "setting": "[10]", "value": 1240, "unit": "ng/mL"}, {"measurement": "concentration at 10 min", "setting": "[10]", "value": 526, "unit": "ng/mL"}, {"measurement": "concentration at 0.25 h", "setting": "[10]", "value": 334, "unit": "ng/mL"}, {"measurement": "concentration at 0.5 h", "setting": "[10]", "value": 240, "unit": "ng/mL"}, {"measurement": "concentration at 0.75 h", "setting": "[10]", "value": 176, "unit": "ng/mL"}, {"measurement": "concentration at 1 h", "setting": "[10]", "value": 99, "unit": "ng/mL"}, {"measurement": "concentration at 1.5 h", "setting": "[10]", "value": 52, "unit": "ng/mL"}, {"measurement": "concentration at 2 h", "setting": "[10]", "value": 28, "unit": "ng/mL"}, {"measurement": "concentration at 4 h", "setting": "[10]", "value": 14, "unit": "ng/mL"}, {"measurement": "concentration at 0.25 h", "setting": "[11]", "value": 1330, "unit": "ng/mL"}, {"measurement": "concentration at 0.5 h", "setting": "[11]", "value": 1030, "unit": "ng/mL"}, {"measurement": "concentration at 0.75 h", "setting": "[11]", "value": 860, "unit": "ng/mL"}, {"measurement": "concentration at 1 h", "setting": "[11]", "value": 834, "unit": "ng/mL"}, {"measurement": "concentration at 1.5 h", "setting": "[11]", "value": 913, "unit": "ng/mL"}, {"measurement": "concentration at 2 h", "setting": "[11]", "value": 977, "unit": "ng/mL"}, {"measurement": "concentration at 3 h", "setting": "[11]", "value": 815, "unit": "ng/mL"}, {"measurement": "concentration at 4 h", "setting": "[11]", "value": 676, "unit": "ng/mL"}, {"measurement": "concentration at 5 h", "setting": "[11]", "value": 550, "unit": "ng/mL"}]}
{"smiles": "COC(=O)C1CCCCN1C(=O)C(Cc1cccc(C(=N)N)c1)NS(=O)(=O)c1ccc2ccccc2c1", "note": "(racemic) [Compound 94]", "values": [{"measurement": "Ki", "setting": "[1]", "value": 0.07, "unit": "µM"}, {"measurement": "Ki", "setting": "[2]; [12]", "value": 46, "unit": "µM"}, {"measurement": "Ki", "setting": "[3]", "value": 10.5, "unit": "µM"}, {"measurement": "Ki", "setting": "[4]", "value": 500, "unit": "µM"}, {"measurement": "Ki", "setting": "[5]", "value": 220, "unit": "µM"}, {"measurement": "Ki", "setting": "[6]", "value": "> 1000", "unit": "µM"}, {"measurement": "Ki", "setting": "[7]", "value": 35, "unit": "µM"}]}
{"smiles": "N=C(N)c1cccc(CC(NS(=O)(=O)c2ccc3ccccc3c2)C(=O)N2CCCCC2C(=O)NCC(=O)O)c1", "note": "(racemic) [Compound 116, N-α-(2-Naphthylsulfonyl)-3-amidino-(D,L)-phenylalanyl-(D,L)-pipecolyl-glycine hydrochloride]", "values": [{"measurement": "Ki", "setting": "[1]", "value": 1.3, "unit": "µM"}, {"measurement": "Ki", "setting": "[2]; [12]", "value": 110, "unit": "µM"}]}
{"smiles": "COC(=O)CNC(=O)C1CCCCN1C(=O)C(Cc1cccc(C(=N)N)c1)NS(=O)(=O)c1ccc2ccccc2c1", "note": "(racemic) [Compound 117, N-α-(2-Naphthylsulfonyl-3-amidino-(D,L)-phenylalanyl-(D,L)-pipecolyl-glycine-methyl ester hydrochloride]", "values": [{"measurement": "Ki", "setting": "[1]", "value": 0.88, "unit": "µM"}, {"measurement": "Ki", "setting": "[2]; [12]", "value": 38, "unit": "µM"}]}
{"smiles": "N=C(N)c1cccc(CC(NS(=O)(=O)c2ccc3ccccc3c2)C(=O)N2CC3CCCCC3CC2C(=O)O)c1", "note": "(racemic) [Compound 151, N-α-(2-Naphthylsulfonyl)-3-amidino-(D,L)-phenylalanyl-decahydroisoquinoline-3-carboxylic acid hydrochloride]", "values": [{"measurement": "Ki", "setting": "[1]", "value": 0.12, "unit": "µM"}, {"measurement": "Ki", "setting": "[2]; [12]", "value": 54, "unit": "µM"}]}
{"smiles": "N=C(N)c1cccc(CC(NC(=O)CNS(=O)(=O)c2ccc3ccccc3c2)C(=O)N2CCCCC2C(=O)O)c1", "note": "(racemic) [Compound 165]", "values": [{"measurement": "Ki", "setting": "[1]", "value": 61, "unit": "µM"}, {"measurement": "Ki", "setting": "[2]; [12]", "value": 48, "unit": "µM"}]}
{"smiles": "N=C(N)c1cccc(CC(NC(=O)CNS(=O)(=O)c2ccc3ccccc3c2)C(=O)N2CCC(C(=O)O)CC2)c1", "note": "(racemic) [Compound 166]", "values": [{"measurement": "Ki", "setting": "[1]", "value": 46, "unit": "µM"}, {"measurement": "Ki", "setting": "[2]; [12]", "value": 97, "unit": "µM"}]}
{"smiles": "CC1CCN(C(=O)C(Cc2cccc(C(=N)N)c2)NS(=O)(=O)c2cccc3cccnc23)CC1", "note": "(racemic) [Compound 171, N-α-(8-quinolinesulfonyl)-3-amidino-(D,L)-phenylalanine-4-methylpiperidide hydroiodide]", "values": [{"measurement": "Ki", "setting": "[1]", "value": 0.34, "unit": "µM"}, {"measurement": "Ki", "setting": "[2]; [12]", "value": 180, "unit": "µM"}, {"measurement": "Ki", "setting": "[3]", "value": 100, "unit": "µM"}, {"measurement": "Ki", "setting": "[4]", "value": 780, "unit": "µM"}, {"measurement": "Ki", "setting": "[5]", "value": "> 1000", "unit": "µM"}, {"measurement": "Ki", "setting": "[6]", "value": 260, "unit": "µM"}, {"measurement": "Ki", "setting": "[7]", "value": "> 1000", "unit": "µM"}]}
